IC50 and selectivity ratio data for seven compounds are collected here from ChEMBL document CHEMBL3232984, “Synthesis and tripanocidal activity of ferrocenyl and benzyl diamines against Trypanosoma brucei and Trypanosoma cruzi” (Bioorg Med Chem Lett, 2014).

Molecules are shown by their SMILES.

Data set [1] has as its system HepG2. The data set can be described thus: Cytotoxicity against human HepG2 cells by MTT assay. In kind it is cell-based. In general terms: Tetrazolium dyes change colour on reduction, which living cells bring about.
Data set [2] relates to Trypanosoma brucei. The data set can be described thus: Antimicrobial activity against procyclic stage of Trypanosoma brucei 427 after 24 hrs by MTT assay. In kind it is functional, organism-based. As to conditions: Trypanosoma brucei, 427, 24 h.
Data set [3] is described as follows: Safety index, ratio of IC50 for human HepG2 cells to IC50 for procyclic stage of Trypanosoma brucei 427. In kind it is toxicity, cell-based. As to conditions: HepG2 cells versus procyclic stage of Trypanosoma brucei 427, read-out: Ratio IC50.
Data set [4] concerns Trypanosoma brucei. Put plainly: Antimicrobial activity against […] 29-13 after 24 hrs by MTT assay. In kind it is functional, organism-based. As to conditions: 29-13, 24 h.
The nature of data set [5]: Safety index, ratio of IC50 for human HepG2 cells to IC50 for […] 29-13. In kind it is toxicity, cell-based. Particulars: read-out: Ratio IC50.
For data set [6], the system named is Trypanosoma cruzi. The data set can be described thus: Antimicrobial activity against epimastigote stage of Trypanosoma cruzi Y after 72 hrs by MTT assay. In kind it is functional, organism-based.
Data set [7] in a line: Safety index, ratio of IC50 for human HepG2 cells to IC50 for epimastigote stage of Trypanosoma cruzi Y. In kind it is toxicity, cell-based. As to conditions: HepG2 cells versus epimastigote stage of Trypanosoma cruzi Y, read-out: Ratio IC50.

What is called IC50 is the point on the concentration scale where inhibition reaches its midpoint. A lower IC50 goes with inhibition by little substance. For the compound `Cl.Cl.c1ccc(CNCCNCc2ccccc2)cc1`, the concentration for half-maximal inhibition (IC50) in data set [1] was 224 µM; in data set [2], 11.1 µM; in data set [4], 9.99 µM; in data set [6] it was 160 µM. Also, the selectivity ratio amounted to 20.2 in data set [3], 22.4 in data set [5] and 1.4 in data set [7].

For `COc1ccc(CNCCNCc2ccc(OC)cc2)cc1`, the concentration for half-maximal inhibition (IC50) in data set [1] was determined as 991 µM; in data set [2] it was 8.25 µM; in data set [4], 8.63 µM; in data set [6], 10.9 µM. The selectivity ratio in data set [3] worked out at 120; in data set [5], 115; in data set [7] it was 90.9.

For the compound `Oc1ccccc1CNCCNCc1ccccc1O`, the IC50 in data set [1] is 148 µM; in data set [2], 4.61 µM; in data set [4] it was 5.16 µM; in data set [6] it was 109 µM. For the same compound, the selectivity ratio is 32.1 in data set [3], 28.7 in data set [5] and 1.36 in data set [7].

On to `Clc1ccc(CNCCNCc2ccc(Cl)cc2Cl)c(Cl)c1`, for which the IC50 in data set [1] was 281 µM; in data set [2], 12.3 µM; in data set [4], 16.8 µM; in data set [6], 51.4 µM. In addition, the selectivity ratio in data set [3] is 22.7; in data set [5], 16.7; in data set [7], 5.45.

Consider `O=[N+]([O-])c1ccc(CNCCNCc2ccc([N+](=O)[O-])cc2)cc1`, for which the IC50 in data set [1] was determined as 590 µM; in data set [2], 36.6 µM; in data set [4] it was 19.2 µM; in data set [6] it was 122 µM. For the same compound, the figures for the selectivity ratio in data set [3], in data set [5] and in data set [7] were 16.1, 30.7 and 4.84, respectively.

`O=C(Cn1ccnc1[N+](=O)[O-])NCc1ccccc1` [BENZNIDAZOLE]: the IC50 in data set [1] is 2130 µM; in data set [2], 208 µM; in data set [4], 150 µM; in data set [6] it was 34 µM. For the same compound, the selectivity ratio in data set [3] was found to be 10.2; in data set [5], 14.2; in data set [7], 62.5.

For `N=C(N)c1ccc(OCCCCCOc2ccc(C(=N)N)cc2)cc1` [PENTAMIDINE], the IC50 in data set [1] was determined as 160 µM; in data set [2] it was 6.43 µM; in data set [4], 6.43 µM; in data set [6], 4.58 µM. The selectivity ratio in data set [3] is 24.8; in data set [5] it was 24.8; in data set [7], 34.9.
